Data taken from ChEMBL document CHEMBL2346520, “Design, synthesis and biological evaluation of novel imidazo[4,5-c]pyridinecarboxamide derivatives as PARP-1 inhibitors” (Bioorg Med Chem Lett, 2013).

Biological target: T1, Poly [ADP-ribose] polymerase 1 (Homo sapiens, UniProt P09874)
Assay: Inhibition of PARP1 (unknown origin)
Details: not given

T1 sequence (P09874 whole entry): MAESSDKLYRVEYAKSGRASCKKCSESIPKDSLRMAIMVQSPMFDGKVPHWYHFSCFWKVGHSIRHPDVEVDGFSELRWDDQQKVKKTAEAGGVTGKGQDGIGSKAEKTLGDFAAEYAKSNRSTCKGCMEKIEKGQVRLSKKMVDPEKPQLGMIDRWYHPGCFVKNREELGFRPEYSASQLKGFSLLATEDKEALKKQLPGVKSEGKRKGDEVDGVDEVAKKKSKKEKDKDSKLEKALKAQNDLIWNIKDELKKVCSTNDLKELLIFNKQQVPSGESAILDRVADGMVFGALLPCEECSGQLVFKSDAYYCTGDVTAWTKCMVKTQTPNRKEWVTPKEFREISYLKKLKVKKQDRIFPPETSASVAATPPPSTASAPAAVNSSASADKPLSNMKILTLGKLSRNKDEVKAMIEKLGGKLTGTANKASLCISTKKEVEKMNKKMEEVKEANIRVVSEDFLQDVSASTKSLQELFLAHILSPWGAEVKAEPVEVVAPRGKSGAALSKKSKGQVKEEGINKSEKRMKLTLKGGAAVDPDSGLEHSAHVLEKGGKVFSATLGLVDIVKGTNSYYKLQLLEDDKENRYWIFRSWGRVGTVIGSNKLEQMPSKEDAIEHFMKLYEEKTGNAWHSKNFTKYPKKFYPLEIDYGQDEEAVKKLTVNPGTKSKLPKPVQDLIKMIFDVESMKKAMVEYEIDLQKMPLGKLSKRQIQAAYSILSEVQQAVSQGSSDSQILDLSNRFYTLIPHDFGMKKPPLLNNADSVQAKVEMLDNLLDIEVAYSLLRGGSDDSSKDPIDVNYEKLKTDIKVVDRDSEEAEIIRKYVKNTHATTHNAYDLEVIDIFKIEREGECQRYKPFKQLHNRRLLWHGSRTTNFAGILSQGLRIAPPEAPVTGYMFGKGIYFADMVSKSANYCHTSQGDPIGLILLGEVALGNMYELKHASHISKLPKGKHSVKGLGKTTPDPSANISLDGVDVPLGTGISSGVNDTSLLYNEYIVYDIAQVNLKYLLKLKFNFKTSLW

First: CN1CCC(c2nc3c(C(N)=O)cncc3[nH]2)CC1
Second: CCCN1CCC(c2nc3c(C(N)=O)cncc3[nH]2)CC1
The IC50 of the first is 2.7-fold higher: 1450 nM for the first, 528 nM for the second. The second is the more potent here.

`CCCN1CCCC(c2nc3c(C(N)=O)cncc3[nH]2)C1` (configuration not stated) and `CC(C)N1CCCC(c2nc3c(C(N)=O)cncc3[nH]2)C1` (configuration not stated) are within 1.5-fold of each other in IC50: 938 nM for the first, 651 nM for the second.

`NC(=O)c1cncc2[nH]c(C3CCCNC3)nc12` (configuration not stated) and `NC(=O)c1cncc2[nH]c(C3CCNCC3)nc12` are within 1.5-fold of each other in IC50: 636 nM for the first, 825 nM for the second.

Biological target: T1, Poly [ADP-ribose] polymerase 1
Details: 100 uM
Description: Inhibition of PARP1 (unknown origin) at 100 uM

In the case of `NC(=O)c1cccc(N)c1`, the inhibition is reported as 100%.
